Where two headings read alike, the source gives them in different places.
Test system: Scleraxis (Scx) gene transcriptional activation in TT-D6 Scx-luciferase (ScxL) cell line
Assay: SCX-LUC in vitro assay (Scx-luciferase reporter)
Type: cell-based
Details: Mus musculus
[1] = 96 h, Table 3, four days, read-out: Scx-Luc (EC50 μM)

| SMILES | EC50 [1] | EC50 (Table 1, read-out: Scx-Luc (EC50 uM)) |
| --- | --- | --- |
| Cc1c(-c2ccc(S(=O)(=O)N3CC(F)(F)C[C@H]3CO)cc2Cl)ccc2[nH]nc(N)c12 [Example 56, (S)-(1-((4-(3-amino-4-methyl-1H-indazol-5-yl)-3-chlorophenyl)sulfonyl)-4,4-difluoropyrrolidin-2-yl)methanol] | 0.764 µM | – |
| Cc1cc(S(=O)(=O)N2CCC(C)(O)C2)ccc1-c1ccc2[nH]nc(N)c2c1C (stereo not drawn) [Example 57, 1-((4-(3-amino-4-methyl-1H-indazol-5-yl)-3-methylphenyl)sulfonyl)-3-methylpyrrolidin-3-ol] | 2.71 µM | – |
| Cc1cc(S(=O)(=O)N[C@H]2CCC[C@]2(C)O)ccc1-c1ccc2[nH]nc(N)c2c1C [Example 58, 4-(3-amino-4-methyl-1H-indazol-5-yl)-N-((1S,2S)-2-hydroxy-2-methylcyclopentyl)-3-methylbenzenesulfonamide] | 1.33 µM | – |
| Cc1cc(S(=O)(=O)N[C@H]2CCC[C@@]2(C)O)ccc1-c1ccc2[nH]nc(N)c2c1C [Example 59, 4-(3-amino-4-methyl-1H-indazol-5-yl)-N-((1S,2R)-2-hydroxy-2-methylcyclopentyl)-3-methylbenzenesulfonamide] | 3.32 µM | – |
| Cc1cc(S(=O)(=O)N2CCC[C@H]2C(C)O)ccc1-c1ccc2[nH]nc(N)c2c1C (stereo partly drawn) [Example 60, 1-((S)-1-((4-(3-amino-4-methyl-1H-indazol-5-yl)-3-methylphenyl)sulfonyl)pyrrolidin-2-yl)ethan-1-ol] | 1.61 µM | – |
| Nc1n[nH]c2ccc(-c3ccc(S(=O)(=O)N4CC(F)(F)C[C@H]4CO)cc3F)c(F)c12 [Example 61, (S)-(1-((4-(3-amino-4-fluoro-1H-indazol-5-yl)-3-fluorophenyl)sulfonyl)-4,4-difluoropyrrolidin-2-yl)methanol] | 1.5 µM | – |
| Cc1cc(S(=O)(=O)N2CCC(O)(C(F)(F)F)C2)ccc1-c1ccc2[nH]nc(N)c2c1C (stereo not drawn) [Example 62, 1-((4-(3-amino-4-methyl-1H-indazol-5-yl)-3-methylphenyl)sulfonyl)-3-(trifluoromethyl)pyrrolidin-3-ol] | 0.63 µM | – |
| Nc1n[nH]c2ccc(-c3ccc(S(=O)(=O)N[C@H]4C[C@](O)(C(F)(F)F)C4)cc3Cl)c(Cl)c12 [Example 64, 4-(3-amino-4-chloro-1H-indazol-5-yl)-3-chloro-N-((1s,3s)-3-hydroxy-3-(trifluoromethyl)cyclobutyl)benzenesulfonamide] | 0.474 µM | – |
| COc1c(-c2ccc(S(=O)(=O)N[C@H]3C[C@](O)(C(F)(F)F)C3)cc2Cl)ccc2[nH]nc(N)c12 [Example 65, 4-(3-amino-4-methoxy-1H-indazol-5-yl)-3-chloro-N-((1s,3s)-3-hydroxy-3-(trifluoromethyl)cyclobutyl)benzenesulfonamide] | 1.22 µM | – |
| Cc1cc(S(=O)(=O)NC2CC(F)(F)C2)ccc1-c1ccc2[nH]nc(N)c2c1Cl [Example 66, 4-(3-amino-4-chloro-1H-indazol-5-yl)-N-(3,3-difluorocyclobutyl)-3-methylbenzenesulfonamide] | 1.08 µM | – |
| Nc1n[nH]c2ccc(-c3ccc(S(=O)(=O)NC4CC(F)(F)C4)cc3Cl)c(Cl)c12 [Example 67, 4-(3-amino-4-chloro-1H-indazol-5-yl)-3-chloro-N-(3,3-difluorocyclobutyl)benzenesulfonamide] | 0.535 µM | – |
| Cc1c(-c2ccc(S(=O)(=O)NC3CC(F)(F)C3)cc2Cl)ccc2[nH]nc(N)c12 [Example 68, 4-(3-amino-4-methyl-1H-indazol-5-yl)-3-chloro-N-(3,3-difluorocyclobutyl)benzenesulfonamide] | 1.86 µM | – |
| COc1c(-c2ccc(S(=O)(=O)NC3CC(O)(C(F)(F)F)C3)cc2C)ccc2[nH]nc(N)c12 (stereo not drawn) [Example 70, 4-(3-amino-4-methoxy-1H-indazol-5-yl)-N-((1s,3s)-3-hydroxy-3-(trifluoromethyl)cyclobutyl)-3-methylbenzenesulfonamide] | 0.282 µM | – |
| Cc1cc(S(=O)(=O)NC2CC(O)(C(F)(F)F)C2)ccc1-c1ccc2[nH]nc(N)c2c1F (stereo not drawn) [Example 71, 4-(3-amino-4-fluoro-1H-indazol-5-yl)-N-((1s,3s)-3-hydroxy-3-(trifluoromethyl)cyclobutyl)-3-methylbenzenesulfonamide] | 0.108 µM | – |
| Nc1n[nH]c2ccc(-c3ccc(S(=O)(=O)NC4CC(O)(C(F)(F)F)C4)cc3Cl)c(F)c12 (stereo not drawn) [Example 72, 4-(3-amino-4-fluoro-1H-indazol-5-yl)-3-chloro-N-((1s,3s)-3-hydroxy-3-(trifluoromethyl)cyclobutyl)benzenesulfonamide] | 0.177 µM | – |
| COc1c(-c2ccc(S(=O)(=O)N[C@@H]3CCC[C@@H]3O)cc2Cl)ccc2[nH]nc(N)c12 [Example 74] | 0.286 µM | – |
| Cc1cc(S(=O)(=O)N[C@@H]2CCC[C@@H]2O)ccc1-c1ccc2[nH]nc(N)c2c1F [Example 75, 4-(3-amino-4-fluoro-1H-indazol-5-yl)-N-((1R,2S)-2-hydroxycyclopentyl)-3-methylbenzenesulfonamide] | 0.359 µM | – |
| Nc1n[nH]c2ccc(-c3ccc(S(=O)(=O)N[C@@H]4CCC[C@@H]4O)cc3Cl)c(F)c12 [Example 76, 4-(3-amino-4-fluoro-1H-indazol-5-yl)-3-chloro-N-((1R,2S)-2-hydroxycyclopentyl)benzenesulfonamide] | 0.171 µM | – |
| Cc1cc(S(=O)(=O)N2CCC(F)(F)C2)ccc1-c1ccc2[nH]nc(N)c2c1C [Example 77, 5-(4-((3,3-difluoropyrrolidin-1-yl)sulfonyl)-2-methylphenyl)-4-methyl-1H-indazol-3-amine] | 0.692 µM | – |
| Cc1cc(S(=O)(=O)N2CCCC(F)(F)C2)ccc1-c1ccc2[nH]nc(N)c2c1C [Example 79, 5-(4-((3,3-difluoropiperidin-1-yl)sulfonyl)-2-methylphenyl)-4-methyl-1H-indazol-3-amine] | 1.52 µM | – |
| Cc1cc(S(=O)(=O)N2CCC(F)(F)CC2)ccc1-c1ccc2[nH]nc(N)c2c1C [Example 80, 5-(4-((4,4-difluoropiperidin-1-yl)sulfonyl)-2-methylphenyl)-4-methyl-1H-indazol-3-amine] | 2.53 µM | – |
| Cc1cnc(Nc2ccc(OCCN3CCCC3)cc2)nc1Nc1cccc(S(=O)(=O)NC(C)(C)C)c1 [reference compound] | – | 0.62 µM |

Second part, led by results:

| EC50 [1] | SMILES | EC50 (Table 1, read-out: Scx-Luc (EC50 uM)) |
| --- | --- | --- |
| 0.372 µM | Cc1cc(S(=O)(=O)N2CC(F)(F)C[C@H]2C(N)=O)ccc1-c1ccc2[nH]nc(N)c2c1C [Example 81, (S)-1-((4-(3-amino-4-methyl-1H-indazol-5-yl)-3-methylphenyl)sulfonyl)-4,4-difluoropyrrolidine-2-carboxamide] | – |
| 0.524 µM | Cc1cc(S(=O)(=O)N2C[C@@H](F)[C@@H](F)C2)ccc1-c1ccc2[nH]nc(N)c2c1C [Example 82, Meso-5-(4-(((3R,4S)-3,4-difluoropyrrolidin-1-yl)sulfonyl)-2-methylphenyl)-4-methyl-1H-indazol-3-amine] | – |
| 0.467 µM | Cc1cc(S(=O)(=O)N(C)C2CC(O)(C(F)(F)F)C2)ccc1-c1ccc2[nH]nc(N)c2c1C (stereo not drawn) [Example 83, 4-(3-amino-4-methyl-1H-indazol-5-yl)-N-((1s,3s)-3-hydroxy-3-(trifluoromethyl)cyclobutyl)-N,3-dimethylbenzenesulfonamide] | – |
| 1.69 µM | Cc1cc(S(=O)(=O)N(C)[C@@H]2CCC[C@@H]2O)ccc1-c1ccc2[nH]nc(N)c2c1C [Example 84, 4-(3-amino-4-methyl-1H-indazol-5-yl)-N-((1R,2S)-2-hydroxycyclopentyl)-N,3-dimethylbenzenesulfonamide] | – |
| 1.79 µM | COc1c(-c2ccc(S(=O)(=O)N3CC(F)(F)C[C@H]3CO)cc2C)ccc2[nH]nc(N)c12 [Example 85, (S)-(1-((4-(3-amino-4-methoxy-1H-indazol-5-yl)-3-methylphenyl)sulfonyl)-4,4-difluoropyrrolidin-2-yl)methanol] | – |
| 0.731 µM | COc1c(-c2ccc(S(=O)(=O)N3CC(F)(F)C[C@H]3CO)cc2Cl)ccc2[nH]nc(N)c12 [Example 86, (S)-(1-((4-(3-amino-4-methoxy-1H-indazol-5-yl)-3-chlorophenyl)sulfonyl)-4,4-difluoropyrrolidin-2-yl)methanol] | – |
| 0.288 µM | Cc1cc(S(=O)(=O)N2C[C@H](F)C[C@H]2CO)ccc1-c1ccc2[nH]nc(N)c2c1C [Example 87, ((2S,4R)-1-((4-(3-amino-4-methyl-1H-indazol-5-yl)-3-methylphenyl)sulfonyl)-4-fluoropyrrolidin-2-yl)methanol] | – |
| 0.22 µM | Cc1cc(S(=O)(=O)N2CC(F)(F)C[C@@H]2CO)ccc1-c1ccc2[nH]nc(N)c2c1C [Example 88, (R)-(1-((4-(3-amino-4-methyl-1H-indazol-5-yl)-3-methylphenyl)sulfonyl)-4,4-difluoropyrrolidin-2-yl)methanol] | – |
| 0.554 µM | Cc1c(-c2c(F)cc(S(=O)(=O)N3CC(F)(F)C[C@H]3CO)cc2F)ccc2[nH]nc(N)c12 [Example 89, (S)-(1-((4-(3-amino-4-methyl-1H-indazol-5-yl)-3,5-difluorophenyl)sulfonyl)-4,4-difluoropyrrolidin-2-yl)methanol] | – |
| 2.91 µM | Cc1cc(-c2ccc3[nH]nc(N)c3c2C)ccc1S(=O)(=O)N1CC(F)(F)C[C@H]1CO [Example 91, (S)-(1-((4-(3-amino-4-methyl-1H-indazol-5-yl)-2-methylphenyl)sulfonyl)-4,4-difluoropyrrolidin-2-yl)methanol] | – |
| 1.01 µM | Cc1cc(S(=O)(=O)N2C[C@@H](F)C[C@H]2CO)ccc1-c1ccc2[nH]nc(N)c2c1C [Example 92, ((2S,4S)-1-((4-(3-amino-4-methyl-1H-indazol-5-yl)-3-methylphenyl)sulfonyl)-4-fluoropyrrolidin-2-yl)methanol] | – |

Reference: patent publication US10112907B2, “Substituted indazoles for treating tendon and/or ligament injuries” (NOVARTIS AG, priority 2016, dated 2018)
